Experiments:
C. albicans [1] = assay: Inhibition of RIND IX reduction by C. albicans (yeast) in solution (Example 1, Table II); format: cell-based, Candida albicans (ATCC 14053); details: Method 2 (antibiotic preincubated with cells 37° C., 30 min), 635 nm
Experimental: The following materials were used in this example: stock solutions of RIND IX compound dispersion prepared as described above, glucose (10% in water), trimethyl-1,4-benzoquinone ETA (1.5 mg/ml methanol), and the antibiotics (25 mg/ml in dimethyl sulfoxide, except that filipin was 12.5 mg/ml of solvent). Bacteria and yeast were grown as described above. The approximate final cell concentrations in the assay mixture were 4.2×10^8 cells/ml of E. coli, 7.1×10^8 cells/ml of S. aureus, and 7×10^5 of C. albicans.
Test solutions were prepared by adding in order: 1.2 ml of HEPES buffer, 50 μl glucose solution, 1.5 ml of RIND IX dispersion, 100 μl of antibiotic solution, 100 μl of cell suspension and 25 μl of ETA solution. Cell control solutions contained all reagents except antibiotics. Background controls consisted of both buffer and solution controls. The buffer control contained all reagents except antibiotics and cells. The solution control contained all reagents except cells. Optical density readings (OD) were measured at 635 nm at 0 minutes and after incubation at 37° C. for 30 minutes for test and Control solutions, and the change in density (ΔOD) was determined. […] The corrected percent inhibition is calculated by dividing the difference between the ΔOD obtained from the Control without antibiotic and the ΔOD of the test solution, by ΔOD of the Control without antibiotic. All readings were corrected by subtracting readings of the appropriate background control.
Solutions containing 2.9 ml HEPES, 50 μl of the antibiotic solution, and 100 μl cell solution were incubated at 37° C. for 30 minutes, centrifuged for 10 minutes and decanted. The resulting pellet was then treated with 1.4 ml HEPES, 50 μl glucose solution, 1.5 ml RIND IX dispersion and 25 μl ETA solution, mixed well and the optical densities recorded as described above in Method 1. The corrected percent inhibition data was calculated as described in Method 1 above.

S. aureus = assay: Inhibition of RIND XXXV reduction by S. aureus, microtitration plate, fluorescence (Example 2, Table III); format: cell-based, Staphylococcus aureus (ATCC 25923); details: Staphylococcus aureus, 0.5 h, S. aureus (gram +), 37° C., 30 min, read-out: Corrected Percent Inhibition
Experimental: (§1) gram-negative microorganism Escherichia coli (ATCC 25922), gram-positive microorganism Staphylococcus aureus (ATCC 25923), and Candida albicans yeast cells (ATCC 14053), brain heart infusion broth (BHI) and Sabaroud's dextrose broth (SAB) from Difco Laboratories (Detroit, Michigan, U.S.A.), and Aspergillus flavus (ATCC 20047), a mold from American Type Culture Collection (Rockville, Maryland, U.S.A.).
(§2) E. coli and S. aureus were grown overnight in BHI broth at 37° C. C. albicans and A. flavus were grown overnight at 25° C. in SAB broth with agitation. The cells were harvested by centrifugation, washed and resuspended in 0.05 molar N-2-hydroxyethylpiperazine-N'-2-ethanesulfonic acid (HEPES) buffer (pH 7.8).
(§3) Dispersions containing RIND compounds were prepared by dissolving, for example, RIND VII from Table I above in N,N-dimethylformamide (DMF) at 16 mg compound per ml of solvent. An aliquot (250 μl) of the resulting solution was added to 500 μl of TRITON X-100 surfactant. This mixture was then added dropwise with stirring to 25 ml of 0.05 molar HEPES buffer. A solution containing a water-compatible RIND compound (for example, RIND XXXV) was prepared by dissolving the compound in N,N-dimethylformamide which had been acidified with 0.1% sulfuric acid (16 mg RIND compound per ml of solvent).
(§4) A composition was prepared from the following components: 100 μl RIND XXXV solution (16 mg RIND compound per ml of acidified N,N-dimethylformamide), 200 μl glucose solution (10% in water), 200 μl trimethyl-1,4-benzoquinone ETA solution (1.5 mg/ml methanol) and 10 ml HEPES buffer.
(§5) Test solutions were prepared using the following reagents: 50 μl HEPES buffer, 50 μl filipin polyene antibiotic (12.5 mg/ml dimethylsulfoxide)(serial dilutions of buffer and antibiotic solutions were performed to obtain various antibiotic concentrations), 50 μl of the appropriate cell suspensions, that is, E. coli (about 10^8 cells/ml), S. aureus (about 10^8 cells/ml), C. albicans (about 10^7 cells/ml) and A. flavus, and […] of the RIND composition described above.
(§6) Control solutions were prepared as described in Example 1. Relative fluorescence was measured using a Dynatech MICROFLUOR Reader (Dynatech Laboratories, Alexandria, Virginia) modified to read at excitation 540 nm and emission 620 nm, at zero time and after incubation at 37° C. for 30 minutes. The change in relative fluorescence was then determined as the difference of the two values.

C. albicans [2] = assay: Inhibition of RIND XXXV reduction by C. albicans, microtitration plate, fluorescence (Example 2, Table III); format: cell-based, Candida albicans (ATCC 14053); details: Candida albicans, 0.5 h, C. albicans (yeast), 37° C., 30 min, read-out: Corrected Percent Inhibition
Experimental: as §1, §2, §3, §4, §5, §6

E. coli [3] = assay: Inhibition of MTT tetrazolium salt reduction by E. coli, microtitration plate (Example 3, Table IV); format: cell-based, Escherichia coli (ATCC 25922); details: Escherichia coli, 0.5 h, E. coli (gram -), 540 nm, 37° C., 30 min, read-out: Corrected Percent Inhibition
Experimental: as §1, §2
(§7) The differentiations of yeast and mold from bacteria were carried out in microtitration plates. The cell suspensions used were like those described in Example 2. The reducible compound used was 3-(4,5-dimethyl-2-thiazolyl)-2,5-diphenyl-2H-tetrazolium bromide (MTT). A composition containing MTT was prepared with the following components: 200 μl MTT solution (5 mg/ml methanol), 200 μl glucose solution (10% glucose in water), 200 μl trimethyl-1,4-benzoquinone ETA and 12 ml of HEPES buffer (0.05 molar, pH 7.8).
as §5, with “components:” for “reagents:”, “suspension, i.e.” for “suspensions, that is,”, “MTT” for “RIND”, “noted” for “described”, “above. Cell Controls contained all reagents except the antibiotic. Background was measured with buffer. Solution Controls contained all reagents except cells.” for “above.”
(§8) Optical density measurements were made at 540 nm using a commercially available spectrophotometer, and the change in optical density (ΔOD) was determined after 30 minutes at 37° C. […] It is apparent that the concentration effective for differentiation of yeast is different than for mold. However, it is well within the skill of a worker in the art to determine the appropriate concentration for a given test.

C. albicans [4] = assay: Inhibition of MTT tetrazolium salt reduction by C. albicans, microtitration plate (Example 3, Table IV); format: cell-based, Candida albicans (ATCC 14053); details: Candida albicans, 0.5 h, C. albicans (yeast), 540 nm, 37° C., 30 min, read-out: Corrected Percent Inhibition
Experimental: as §1, §2, §7
as §5, with “components:” for “reagents:”, “suspension, i.e.” for “suspensions, that is,”, “MTT” for “RIND”, “noted” for “described”, “above. Cell Controls contained all reagents except the antibiotic. Background was measured with buffer. Solution Controls contained all reagents except cells.” for “above.”
as §8

E. coli [5] = assay: Inhibition of RIND XXXV reduction by E. coli, dry analytical element (Example 4, Table V); format: cell-based, Escherichia coli (ATCC 25922); details: E. coli (gram -), 37° C., 30 min
Experimental: as §1, §2
Dispersions containing RIND compounds were prepared by dissolving, for example, RIND VII from Table I above in N,N-dimethylformamide (DMF) at 16 mg compound per ml of solvent. An aliquot (250 μl) of the resulting solution was added to 500 μl of TRITON X-100 surfactant. […]
A standard paper punch was used to cut circular elements (about 0.6 cm in diameter) from the dried strips. […] Buffer solution was applied to separate elements for background readings.
Relative fluorescence (excitation at 540 nm and emission at 620 nm) was measured using a Dynatech MICROFLUOR reader at zero time and after 30 minutes incubation at 37° C., and the change in relative fluorescence was determined.

Structure (SMILES): CCCCC[C@@H](O)[C@H]1C(=O)O[C@H](C)[C@@H](O)/C=C/C=C/C=C/C=C/C=C(\C)[C@@H](O)C[C@H](O)C[C@H](O)C[C@H](O)C[C@H](O)C[C@H](O)C[C@@H]1O [Filipin, filipin]
- Corrected % Inhibition (C. albicans [1]): 97.5%
- inhibition at 260 µg/mL (S. aureus; 0.26 mg/ml): 7.5%
- inhibition at 520 µg/mL (S. aureus; 0.52 mg/ml): 8.6%
- inhibition at 1040 µg/mL (S. aureus; 1.04 mg/ml): 14.8%
- inhibition at 2080 µg/mL (S. aureus; 2.08 mg/ml): 18.2%
- inhibition at 260 µg/mL (C. albicans [2]; 0.26 mg/ml): 56.8%
- inhibition at 520 µg/mL (C. albicans [2]; 0.52 mg/ml): 71%
- inhibition at 1040 µg/mL (C. albicans [2]; 1.04 mg/ml): 80.7%
- inhibition at 2080 µg/mL (C. albicans [2]; 2.08 mg/ml): 86.8%
- inhibition at 260 µg/mL (E. coli [3]; 0.26 mg/ml): 0%
- inhibition at 520 µg/mL (E. coli [3]; 0.52 mg/ml): 0%
- inhibition at 1040 µg/mL (E. coli [3]; 1.04 mg/ml): 0%
- inhibition at 2080 µg/mL (E. coli [3]; 2.08 mg/ml): 0%
- inhibition at 260 µg/mL (C. albicans [4]; 0.26 mg/ml): 10.3%
- inhibition at 520 µg/mL (C. albicans [4]; 0.52 mg/ml): 50%
- inhibition at 1040 µg/mL (C. albicans [4]; 1.04 mg/ml): 60.3%
- inhibition at 2080 µg/mL (C. albicans [4]; 2.08 mg/ml): 100%
- Corrected Percent Inhibition (E. coli [5]): 18%

Source: patent US4888287A, “Rapid differentiation of fungi from bacteria using polyene antibiotics” (Eastman Kodak Company, priority 1986, dated 1989)
